Source: patent US9499550B2 (BRISTOL-MYERS SQUIBB COMPANY, priority 2012, dated 2016)
Read-outs that look alike come from different tables or passages of the source.

How the values were obtained:
[1] = system: HCV genotype 1a (H77 strain) replicon in HUH-7 cells; assay: HCV replicon luciferase reporter assay, genotype 1a; format: cell-based; conditions: Hepatitis C virus, Huh-7, 72 h, HCV genotype 1a replicon luciferase, 3 days incubation
Summary of the method: (§1)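 Replicon inhibition for both genotypes was measured as Renilla luciferase signal (EnduRen, 7.5 μM final, 2 h) after 3-day, 37° C exposure of replicon-bearing HUH-7 cells in 4% FCS DMEM, 0.5% DMSO. The 1b construct carries S1179I; the 1a H77 construct carries P1496L and S2204I. Twenty-point, 3-fold dilutions were fitted four-parametrically for EC50, and CC50 was taken from multiplexed Cell Titer-Blue.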

[2] = system: HCV genotype 1b (Con1) replicon in HUH-7 cells; assay: HCV replicon luciferase reporter assay, genotype 1b; format: cell-based; conditions: Hepatitis C virus, Huh-7, 72 h, HCV genotype 1b replicon luciferase, 3 days incubation
Summary of the method: as §1

[3] = GETYPE1A, read-out: LE_1a (EC50, range)
[4] = GETYPE1B, read-out: LE_1b (EC50, range)

| Compound | EC50 [1, 3] [nM] | EC50 [2, 4] [nM] | EC50 ([1]; read-out: LE_1a (EC50, range)) [nM] | EC50 ([2]; read-out: LE_1b (EC50, range)) [nM] | EC50 ([1]; GETYPE1A, read-out: LE_1a (EC50)) [nM] | EC50 ([2]; GETYPE1B, read-out: LE_1b (EC50)) [nM] |
| --- | --- | --- | --- | --- | --- | --- |
| CCOc1ccc2ncc(O[C@@H]3C[C@H]4C(=O)N[C@]5(C(=O)NS(=O)(=O)C6(C)CC6)C[C@H]5/C=C\CC[C@@H](C)C[C@@H](CC)[C@H](NC(=O)OC(C)(C)C(F)(F)F)C(=O)N4C3)cc2c1 [Compound 4314] | 1.01 to 5 | 1.01 to 5 |  |  |  |  |
| COc1ccc2nc(C(C)C)c(O[C@@H]3C[C@H]4C(=O)N[C@]5(C(=O)NS(=O)(=O)C6CC6)C[C@H]5/C=C\CC[C@H](C)C[C@@H](C)[C@H](NC(=O)OC(C)(C)C)C(=O)N4C3)nc2c1 [Compound 4315, tert-butyl ((2R,6S,7R,9S,13aS,14aR,16aS,Z)-14a-((cyclopropylsulfonyl)carbamoyl)-2-((3-isopropyl-7-methoxyquinoxalin-2-yl)oxy)-7,9-dimethyl-5,16-dioxo-1,2,3,5,6,7,8,9,10,11,13a,14,14a,15,16,16a-hexadecahydrocyclopropa[e]pyrrolo[1,2-a][1,4]diazacyclopentadecin-6-yl)carbamate] |  |  | 5.01 to 35 | 1.01 to 5 |  |  |
| COc1ccc2nc(C(C)C)c(O[C@@H]3C[C@H]4C(=O)N[C@]5(C(=O)NS(=O)(=O)C6CC6)C[C@H]5/C=C\CC[C@@H](C)C[C@@H](C)[C@H](NC(=O)OC(C)(C)C)C(=O)N4C3)nc2c1 [Compound 4316, tert-butyl ((2R,6S,7R,9R,13aS,14aR,16aS,Z)-14a-((cyclopropylsulfonyl)carbamoyl)-2-((3-isopropyl-7-methoxyquinoxalin-2-yl)oxy)-7,9-dimethyl-5,16-dioxo-1,2,3,5,6,7,8,9,10,11,13a,14,14a,15,16,16a-hexadecahydrocyclopropa[e]pyrrolo[1,2-a][1,4]diazacyclopentadecin-6-yl)carbamate] |  |  | 1.01 to 5 | 1.01 to 5 |  |  |
| COc1ccc2nc(C(C)C)c(O[C@@H]3C[C@H]4C(=O)N[C@]5(C(=O)NS(=O)(=O)C6CC6)C[C@H]5/C=C\CC[C@@H](C)C[C@@H](C)[C@H](NC(=O)OC(C)(C)C(F)(F)F)C(=O)N4C3)nc2c1 [Compound 4317] | 1.01 to 5 | 1.01 to 5 |  |  |  |  |
| COc1ccc2nc(C(C)C)c(O[C@@H]3C[C@H]4C(=O)N[C@]5(C(=O)NS(=O)(=O)C6CC6)C[C@H]5/C=C\CC[C@H](C)C[C@@H](C)[C@H](NC(=O)OC(C)(C)C(F)(F)F)C(=O)N4C3)nc2c1 [Compound 4318] | 5.01 to 35 | 1.01 to 5 |  |  |  |  |
| COc1ccc2c(O[C@@H]3C[C@H]4C(=O)N[C@]5(C(=O)NS(=O)(=O)C6(C)CC6)C[C@H]5/C=C\CC[C@@H](C)C[C@@H](C)[C@H](NC(=O)OC(C)(C)C)C(=O)N4C3)cnnc2c1 [Compound 4319, tert-butyl ((2R,6S,7R,9R,13aS,14aR,16aS,Z)-2-((7-methoxycinnolin-4-yl)oxy)-7,9-dimethyl-14a-(((1-methylcyclopropyl)sulfonyl)carbamoyl)-5,16-dioxo-1,2,3,5,6,7,8,9,10,11,13a,14,14a,15,16,16a-hexadecahydrocyclopropa[e]pyrrolo[1,2-a][1,4]diazacyclopentadecin-6-yl)carbamate] |  |  | 5.01 to 35 | 35 to 620 |  |  |
| CC[C@@H]1C[C@H](C)CC/C=C\[C@@H]2C[C@@]2(C(=O)NS(=O)(=O)C2(C)CC2)NC(=O)[C@@H]2C[C@@H](Oc3cnnc4cc(OC)ccc34)CN2C(=O)[C@H]1NC(=O)OC(C)(C)C(F)(F)F [Compound 4320] | 5.01 to 35 | 5.01 to 35 |  |  | 15 | 21.9 |
| CC[C@@H]1C[C@H](C)CC/C=C\[C@@H]2C[C@@]2(C(=O)NS(=O)(=O)C2(C)CC2)NC(=O)[C@@H]2C[C@@H](Oc3cnnc4cc(OC)ccc34)CN2C(=O)[C@H]1NC(=O)OC(C)(C)C [Compound 4321, tert-butyl ((2R,6S,7R,9R,13aS,14aR,16aS,Z)-7-ethyl-2-((7-methoxycinnolin-4-yl)oxy)-9-methyl-14a-(((1-methylcyclopropyl)sulfonyl)carbamoyl)-5,16-dioxo-1,2,3,5,6,7,8,9,10,11,13a,14,14a,15,16,16a-hexadecahydrocyclopropa[e]pyrrolo[1,2-a][1,4]diazacyclopentadecin-6-yl)carbamate] |  |  | 5.01 to 35 | 5.01 to 35 |  |  |
